# Measurements from patent publication US9517989B2, “2-cycloalkyl resorcinol cannabinergic ligands” (priority 2012, dated 2016).
# Key:
# CB1 [1] = molecular target: T1, CB1 (Rattus norvegicus, UniProt P20272); assay: CB1 receptor binding affinity (Ki)
# Method: Some disclosed compounds were tested for CB1 and CB2 receptor binding affinity (Tables 1, 2, 3, 4, 5, 6). As used herein “binding affinity” is represented by the Ki value. The Ki value is the affinity constant and describes the affinity of the compound for the receptor. […] A detailed description of the methods used to test “binding affinity” of compounds is given in Makriyannis, et al., US 2007, 0135388 and in Papahatjis, et al. J. Med. Chem. (2007) 4048, the content of each of which is hereby incorporated by reference.
# CB2 receptor = CB2 receptor (UniProt P47936); assay: CB2 receptor binding affinity (Ki); details: read-out: CB2 receptor Ki
# Method: Some disclosed compounds were tested for CB1 and CB2 receptor binding affinity (Tables 1, 2, 3, 4, 5, 6). As used herein “binding affinity” is represented by the Ki value. The Ki value is the affinity constant and describes the affinity of the compound for the receptor. The lower the Ki value, the higher the affinity of the compound for the receptor. A detailed description of the methods used to test “binding affinity” of compounds is given in Makriyannis, et al., US 2007, 0135388 and in Papahatjis, et al. J. Med. Chem. (2007) 4048, the content of each of which is hereby incorporated by reference.
# C57BL/6 J mice = assay: Hypothermia assay (rectal temperature); type: in vivo; details: dose of 3 mg/kg, FIG. 2
# Method: Some of the disclosed compounds were tested in vivo using two well defined rodent assays for cannabinergic activity, the analgesia and the hypothermia assays. The analgesia assay (tail immersion test) determines the ability of the test compound to activate cannabinergic signaling, through modulation of cannabinoid receptors, and thereby reduce nociceptive pain. The hypothermia test determines the ability of a test compound to act as a central CB1 agonist and decrease the body temperature. […] The details of both assays are described below.
# C57BL/6 J mice (Charles River Breeding Laboratories, Wilmington, Mass., USA) weighing 30 to 35 g were group housed five to a cage, in a temperature-controlled (20° C.) animal facility. Mice were habituated to the animal facility for at least 1 week prior to experiments with a 12-h light/dark cycle (lights are on at 7:00 AM). Mice were given free access to food and water. Experimentally naïve mice were used for each dose condition, and the mice were tested during the light phase.
# Rectal temperature was measured in mice using a rectal probe of a digital laboratory thermometer, RET-3-ISO, type T thermocouple (Physitemp Instruments Inc, Clifton, N.J.). The lubricated probe was inserted approximately 2.0 cm into the rectum for approximately 30 sec, prior to each recording. […]
# CB1 [2] = molecular target: T1, CB1; assay: cyclic adenosine monophosphate (cAMP) assay at CB1; type: cell-based
# Method: (§1) Functional characterization of some of the disclosed compounds was performed by using the cyclic adenosine monophosphate (cAMP) assay. The functional potency of the compound is represented by the EC50 value. The lower the EC50 value, the higher the functional potency. A detailed description of the cyclic adenosine monophosphate (cAMP) assay is given in Nikas et al. J. Med. Chem. (2010) 6996.
# CB2 = CB2 (Homo sapiens, UniProt P34972); assay: cyclic adenosine monophosphate (cAMP) assay at CB2; type: cell-based
# Method: as §1
# [3] = read-out: Functional Potency (EC50)
# CB2, sequence (P34972 whole entry, species assumed): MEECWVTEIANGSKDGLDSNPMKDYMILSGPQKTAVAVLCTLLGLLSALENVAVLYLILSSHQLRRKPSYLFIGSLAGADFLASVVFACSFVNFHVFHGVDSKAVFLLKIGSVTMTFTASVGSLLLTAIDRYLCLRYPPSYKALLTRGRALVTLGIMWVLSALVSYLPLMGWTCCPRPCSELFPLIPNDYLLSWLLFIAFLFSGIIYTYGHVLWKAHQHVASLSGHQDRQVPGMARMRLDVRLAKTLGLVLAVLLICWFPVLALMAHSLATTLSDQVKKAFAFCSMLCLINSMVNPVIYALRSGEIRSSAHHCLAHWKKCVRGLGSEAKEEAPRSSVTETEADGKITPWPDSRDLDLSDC
# T1 sequence (P20272 whole entry): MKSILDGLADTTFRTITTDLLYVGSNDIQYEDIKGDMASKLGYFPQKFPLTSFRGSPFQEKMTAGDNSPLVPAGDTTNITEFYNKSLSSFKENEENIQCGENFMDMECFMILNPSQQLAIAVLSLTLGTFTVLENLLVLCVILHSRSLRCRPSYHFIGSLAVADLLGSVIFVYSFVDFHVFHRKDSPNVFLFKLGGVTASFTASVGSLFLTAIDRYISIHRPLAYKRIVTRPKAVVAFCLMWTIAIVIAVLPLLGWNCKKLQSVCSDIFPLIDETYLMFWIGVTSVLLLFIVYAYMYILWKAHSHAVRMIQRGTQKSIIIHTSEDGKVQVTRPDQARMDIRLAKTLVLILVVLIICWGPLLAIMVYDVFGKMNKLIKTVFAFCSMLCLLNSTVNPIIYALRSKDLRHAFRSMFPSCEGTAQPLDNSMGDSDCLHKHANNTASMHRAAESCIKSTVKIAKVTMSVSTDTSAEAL
smiles,measurement,setting,value
"C=C(C)[C@H]1CCC(CO)=C[C@@H]1c1c(O)cc(C(C)(C)CCCCN2CCOCC2)cc1O [Compound 71, 2-[(1S,6S)-3-(Hydroxymethyl)-6-(1-methylethenyl)-2-cyclohexen-1-yl]-5-(6-morpholino-2-methylhexane-2-yl)resorcinol]",Ki,CB1 [1],6 nM
same,Ki,CB2 receptor,3 nM
same,centrally mediated hypothermia,C57BL/6 J mice,does not show significant hypothermia
same,Functional Activity,CB1 [2],Agonist at CB1
same,Emax,CB1 [2]; read-out: % Efficacy,88%
same,EC50,CB1 [2]; [3],1.4 nM
same,Functional Activity,CB2,Partial agonist at CB2
same,Emax,CB2; read-out: % Efficacy,42%
same,EC50,CB2; [3],0.4 nM
